Data reported in PubChem BioAssay AID602427 (Sanford-Burnham Center for Chemical Genomics, 2012).
pEC50: −log10 of the molar value. Calls of active or inactive are those of the source.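 Rule for the calls: active = EC50 at or below 20 micromolar; inactive = the rest.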

What follows are compounds tested against Neurotensin receptor type 1 (Homo sapiens) (UniProt P30989) (assay: NTR1 agonists, beta-arrestin recruitment, SAR follow-up, orthogonal assay for NTR1 agonist project, cell-based, luminescence, CHO-K1 NTSR1 PathHunter (AID 602427);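 note: agonist potency for NTR1 activation where higher luminescence means more arrestin recruitment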).
Sequence of Neurotensin receptor type 1 (Homo sapiens) (P30989 whole entry, looked up): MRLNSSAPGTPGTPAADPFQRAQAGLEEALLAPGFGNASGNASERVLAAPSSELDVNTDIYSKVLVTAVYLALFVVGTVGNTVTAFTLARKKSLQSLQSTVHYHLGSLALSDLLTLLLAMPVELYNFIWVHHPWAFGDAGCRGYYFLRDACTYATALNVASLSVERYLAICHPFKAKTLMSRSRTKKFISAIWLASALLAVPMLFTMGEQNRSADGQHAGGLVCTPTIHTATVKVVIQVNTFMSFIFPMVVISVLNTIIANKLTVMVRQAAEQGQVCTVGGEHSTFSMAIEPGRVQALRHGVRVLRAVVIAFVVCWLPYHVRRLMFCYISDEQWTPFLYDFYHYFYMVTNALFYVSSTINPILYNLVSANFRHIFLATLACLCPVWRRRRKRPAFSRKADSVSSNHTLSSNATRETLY
With `COc1cc2c3nnc(-c4ccc(F)cc4)c-3cn(CC3CC3)c2cc1OC` the EC50 was > 33 µM (inactive).
With `COc1cc2c(=O)c(C(=O)c3ccc(F)cc3)cn(Cc3ccncc3)c2cc1OC` the EC50 was > 33 µM (inactive).
`COc1cc2nc(C3CC3)nc(N3CCN(c4ccccc4OC)CC3)c2cc1OC` showed a pEC50 of 5.42.
For `Fc1ccc(Cn2cc3c(-c4ccc(F)cc4)nnc-3c3cc4c(cc32)OCO4)cc1`, the EC50 was > 33 µM (inactive).
With `COc1ccccc1-c1nc(C(=O)N[C@@H](CC(C)C)C(=O)O)cn1-c1ccnc2cc(Cl)ccc12` the EC50 was > 33 µM (inactive).
With `COc1cc2ncc3c(-c4ccc(F)cc4)n[nH]c3c2cc1OC` the EC50 was > 33 µM (inactive).
`Cc1ccc(-c2nnc3c4cc5c(cc4n(Cc4ccccc4)cc2-3)OCO5)cc1` was tested, and the EC50 was > 33 µM (inactive).
With `COc1ccc(/C=N/Nc2nc(-c3ccc(S(=O)(=O)N(C)C)cc3)cs2)cc1OC` the EC50 was > 33 µM (inactive).
In the case of `CCn1cc(C(=O)c2ccc(OC)cc2)c(=O)c2ccccc21`, the EC50 was > 33 µM (inactive).
In the case of `COc1cc2c3nnc(-c4ccc(C)c(C)c4)c-3cn(Cc3ccc(F)cc3)c2cc1OC`, the EC50 was > 33 µM (inactive).
For `Cc1ccc(-n2ncc3c(N4CCN(c5ccccc5)CC4)ncnc32)cc1`, the EC50 was > 33 µM (inactive).
In the case of `Cc1ccc(Cn2cc3c(-c4ccc(C)c(C)c4)nnc-3c3cc4c(cc32)OCO4)cc1`, the EC50 was > 33 µM (inactive).
In the case of `COc1cc2nc(C)nc(N3CCN(c4ccccc4OC)CC3)c2cc1OC`, the EC50 was > 33 µM (inactive).
For `COc1cc2c(=O)c(C(=O)c3ccc(F)cc3)cn(CCc3ccccc3)c2cc1OC`, the EC50 was > 33 µM (inactive).
With `COc1cccc(OC)c1-c1nc(C(=O)N[C@@H](CC(C)C)C(=O)O)cn1-c1ccnc2cc(Cl)ccc12` the pEC50 was 5.21.
With `CCOc1cc2nc(-c3ccc(OC)c(OC)c3)nc(N3CCN(c4ccccc4)CC3)c2cc1OC` the EC50 was > 33 µM (inactive).
For `COc1ccc(Cn2c(SCc3cccc(C(F)(F)F)c3)nc3cc(OC)c(OC)cc3c2=N)cc1Cl`, the EC50 was > 33 µM (inactive).
In the case of `CC(C)C[C@H](NC(=O)c1nc(-c2ccnc3ccccc23)c(-c2ccccc2)s1)C(=O)O`, the EC50 was > 33 µM (inactive).
With `COc1cc2c(=O)c(C(=O)c3ccc(F)cc3)cn(Cc3ccc(Cl)cc3)c2cc1OC` the EC50 was > 33 µM (inactive).
`COc1cccc(N2CCN(c3ncnc4c3cnn4-c3ccc(C)cc3C)CC2)c1` was tested, and the EC50 was > 33 µM (inactive).
`CC(C)C[C@H](NC(=O)c1cn(-c2ccnc3ccccc23)c2ccccc12)C(=O)O` was tested, and the EC50 was > 33 µM (inactive).
With `COc1cc2c3nnc(-c4ccc(Cl)cc4)c-3cn(Cc3ccccc3)c2cc1OC` the EC50 was > 33 µM (inactive).
With `COc1ccc(C(=O)c2cn(Cc3ccccc3)c3ccccc3c2=O)cc1` the EC50 was > 33 µM (inactive).
In the case of `COc1ccc(-c2nc(C(=O)N[C@@H](CC(C)C)C(=O)O)cn2-c2ccnc3cc(Cl)ccc23)c(OC)c1`, the EC50 was > 33 µM (inactive).
In the case of `Clc1cccc(-n2ncc3c(N4CCN(c5ccccc5)CC4)ncnc32)c1`, the EC50 was > 33 µM (inactive).
For `O=S(=O)(c1ccc(-c2csc(N/N=C/c3ccco3)n2)cc1)N1CCOCC1`, the EC50 was > 33 µM (inactive).
With `c1ccc(N2CCN(c3ncnc4c3cnn4-c3ccccc3)CC2)cc1` the EC50 was > 33 µM (inactive).
In the case of `Cc1ccc(/C=N/Nc2nc(-c3ccc(S(=O)(=O)N(C)C)cc3)cs2)cc1`, the EC50 was > 33 µM (inactive).
`COc1ccc2c(c1)c1nnc(-c3ccc(F)cc3)c-1cn2Cc1ccccc1` was tested, and the EC50 was > 33 µM (inactive).
In the case of `COc1cc2nc(C3CCCC3)nc(N3CCN(c4ccccc4OC)CC3)c2cc1OC`, the EC50 was “inactive”.
In the case of `COc1cc2ncnc(N3CCN(c4ccccc4OC)CC3)c2cc1OC`, the EC50 was > 33 µM (inactive).
With `Fc1ccc(-n2ncc3c(N4CCN(c5ccccc5)CC4)ncnc32)cc1` the EC50 was > 33 µM (inactive).
With `Cc1ccc(-n2ncc3c(N4CCN(c5ccccc5)CC4)ncnc32)cc1C` the EC50 was > 33 µM (inactive).
`COc1ccccc1-c1nc(C(=O)N[C@@H](CC(C)C)C(=O)O)cn1-c1ccncc1` was tested, and the EC50 was > 33 µM (inactive).
For `COc1cc2nc(-c3ccccc3)nc(N3CCN(c4ccccc4)CC3)c2cc1OC`, the EC50 was > 33 µM (inactive).
For `CC(C)C[C@H](NC(=O)c1cn(-c2ccnc3cc(Cl)ccc23)c2ccccc12)C(=O)O`, the EC50 was > 33 µM (inactive).
`COc1ccc2c(c1)c1nnc(-c3ccc(F)cc3)c-1cn2Cc1ccc(F)cc1` was tested, and the EC50 was > 33 µM (inactive).
For `COc1cc2c3nnc(-c4ccc(F)cc4)c-3cn(Cc3ccc(F)cc3)c2cc1OC`, the EC50 was > 33 µM (inactive).
`O=C(c1ccccc1)c1cn(Cc2ccccc2)c2ccccc2c1=O` was tested, and the EC50 was > 33 µM (inactive).
In the case of `COc1ccc(/C=N/Nc2nc(-c3ccc(S(=O)(=O)N(C)C)cc3)cs2)cc1`, the EC50 was > 33 µM (inactive).
`COc1cc2nc(C3CCC3)nc(N3CCN(c4ccccc4Cl)CC3)c2cc1OC` was tested, and the EC50 was > 33 µM (inactive).
With `COc1cc2c3nnc(-c4ccc(C)cc4)c-3cn(Cc3ccccc3)c2cc1OC` the EC50 was “inactive”.
`Cc1ccc(C)c(-n2ncc3c(N4CCN(c5ccccc5)CC4)ncnc32)c1` was tested, and the EC50 was > 33 µM (inactive).
`Cc1ccc(-n2ncc3c(N4CCN(c5ccccc5Cl)CC4)ncnc32)c(C)c1` was tested, and the EC50 was > 33 µM (inactive).
`CC(=O)c1ccc(N2CCN(c3ncnc4c3cnn4-c3ccc(C)cc3C)CC2)cc1` was tested, and the EC50 was > 33 µM (inactive).
In the case of `COc1cc2nc(C3CCC3)nc(N3CCN(c4ccccc4F)CC3)c2cc1OC`, the EC50 was > 33 µM (inactive).
In the case of `COc1cc2c(=O)c(C(=O)c3ccc(F)cc3)cn(Cc3ccc(N(C)C)cc3)c2cc1OC`, the EC50 was > 33 µM (inactive).
`COc1cc2nc(C3CCC3)nc(N3CCN(c4ccccc4)CC3)c2cc1OC` was tested, and the EC50 was > 33 µM (inactive).
For `O=C(O)c1nc(-c2ccnc3ccccc23)c(-c2ccccc2)s1`, the EC50 was > 33 µM (inactive).
With `COc1cccc(OC)c1-c1cc(C(=O)N[C@@H](CC(C)C)C(=O)O)nn1-c1ccnc2cc(Cl)ccc12` the EC50 was > 33 µM (inactive).
With `CCn1cc2c(-c3ccc(OC)cc3)nnc-2c2ccccc21` the EC50 was > 33 µM (inactive).
In the case of `Cc1ccc(-n2ncc3c(N4CCN(c5cccc(Cl)c5)CC4)ncnc32)c(C)c1`, the EC50 was > 33 µM (inactive).
For `c1ccc(Cn2cc3c(-c4ccccc4)nnc-3c3ccccc32)cc1`, the EC50 was > 33 µM (inactive).
`COc1ccccc1-c1cc(C(=O)N[C@@H](CC(C)C)C(=O)OC(C)(C)C)nn1-c1ccnc2cc(Cl)ccc12` was tested, and the EC50 was > 33 µM (inactive).
`CCc1ccc(-c2nnc3c4cc(OC)c(OC)cc4n(Cc4ccccc4)cc2-3)cc1` was tested, and the EC50 was > 33 µM (inactive).
`COc1cccc(N2CCN(c3nc(C4CCC4)nc4cc(OC)c(OC)cc34)CC2)c1` was tested, and the EC50 was > 33 µM (inactive).
`COc1cc2nc(SCc3ccncc3)n(Cc3cccc(C(F)(F)F)c3)c(=N)c2cc1OC` was tested, and the EC50 was > 33 µM (inactive).
`COc1ccc2c(c1)c1nnc(-c3ccc(F)cc3)c-1cn2Cc1ccc(C)cc1` was tested, and the EC50 was > 33 µM (inactive).
`COc1ccc2c(N3CCN(c4ccccc4OC)CC3)nc(C3CCC3)nc2c1` was tested, and the EC50 was > 33 µM (inactive).
With `Clc1ccccc1-n1ncc2c(N3CCN(c4ccccc4)CC3)ncnc21` the EC50 was > 33 µM (inactive).
`COc1cccc2c(C(=O)N[C@@H](CC(C)C)C(=O)O)cn(-c3ccnc4cc(Cl)ccc34)c12` was tested, and the EC50 was > 33 µM (inactive).
In the case of `CCOc1ccc(-c2nnc3c4cc(OC)c(OC)cc4n(Cc4ccc(C)cc4)cc2-3)cc1`, the EC50 was > 33 µM (inactive).
In the case of `COc1cc2c3nnc(-c4ccc(C)c(C)c4)c-3cn(Cc3ccccc3)c2cc1OC`, the EC50 was “inactive”.
With `CC(C)C[C@H](NC(=O)c1cn(-c2ccnc3ccccc23)c(-c2ccccc2)n1)C(=O)O` the EC50 was > 33 µM (inactive).
